Experimental findings from patent publication US8765741B2, “5,6-dihydro-1H-pyridin-2-one compounds” (Anadys Pharmaceuticals, Inc., priority 2007, dated 2014) are described below.

Broadly, the IC50 is the point on the concentration scale where inhibition reaches its midpoint.

For this assay, the target named is NS5B polymerase (Hepatitis C virus genotype 1b, UniProt P26663). Nature of the assay: biochemical. Particulars: NS5B polymerase inhibition; 20 nM enzyme, 75 min at 28° C.; read-out: IC50. On the procedure: Compounds were tested for HCV polymerase inhibition. Assays were performed in a 96-well streptavidin-coated FlashPlate using 20 nM enzyme, 0.5 μCi of [α-^33P]GTP, 0.6 μM GTP, and 250 nM 5′biotinylated oligo (rG13)/poly rC in 20 mM Tris-HCl, pH 7.5, 5 mM MgCl2, 5 mM dithiothreitol, 0.1 g/L bovine serum albumin, and 100 U/mL RNAse inhibitor. The reaction was stopped by aspiration after 75 min at 28° C. and the plate was washed several times. After washing and drying the plate, incorporated radioactivity was counted using a Microbeta scintillation counter. IC50 values were calculated relative to the uninhibited control and inhibition data were fitted to a 4-parameter IC50 equation.
Sequence of NS5B polymerase (P26663 2420-3010): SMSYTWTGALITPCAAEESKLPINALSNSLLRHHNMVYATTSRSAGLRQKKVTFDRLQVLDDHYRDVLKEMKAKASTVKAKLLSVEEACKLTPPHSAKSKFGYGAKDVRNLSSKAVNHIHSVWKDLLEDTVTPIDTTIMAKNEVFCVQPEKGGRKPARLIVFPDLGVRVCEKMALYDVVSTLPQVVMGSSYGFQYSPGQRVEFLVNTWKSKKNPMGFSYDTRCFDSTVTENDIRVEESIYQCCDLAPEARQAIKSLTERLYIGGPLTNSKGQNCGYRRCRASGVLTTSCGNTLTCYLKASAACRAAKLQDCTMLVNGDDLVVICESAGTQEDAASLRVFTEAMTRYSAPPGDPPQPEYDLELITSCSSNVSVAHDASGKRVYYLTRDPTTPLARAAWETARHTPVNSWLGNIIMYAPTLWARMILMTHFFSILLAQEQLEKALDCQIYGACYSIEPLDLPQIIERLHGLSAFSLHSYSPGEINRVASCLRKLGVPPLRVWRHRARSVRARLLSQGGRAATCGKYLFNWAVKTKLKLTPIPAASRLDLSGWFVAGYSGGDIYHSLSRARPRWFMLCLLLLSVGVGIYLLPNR
As to `O=C1C(C2=NS(=O)(=O)c3cc(C4CCCS4(=O)=O)ccc3N2)=C(O)[C@@H]2[C@H]3CC[C@H](C3)[C@@H]2N1Cc1ccc(F)cc1` (stereo partly drawn) [Example 21, (1R,2S,7R,8S)-5-[7-(1,1-Dioxo-tetrahydro-1λ^6-thiophen-2-yl)-1,1-dioxo-1,4-dihydro-1λ^6-benzo[1,2,4]thiadiazin-3-yl]-3-(4-fluoro-benzyl)-6-hydroxy-3-aza-tricyclo[6.2.1.0^2,7]undec-5-en-4-one], the IC50 lay in the range of 20 to 100 nM. Turning to `CC(C)CCN1C(=O)C(C2=NS(=O)(=O)c3cc(NS(C)(=O)=O)ccc3N2)=C(O)[C@@H]2[C@H]3CC[C@H](C3)[C@@H]21` [Example 22, (1R,2S,7R,8S)-N-{3-[6-Hydroxy-3-(3-methyl-butyl)-4-oxo-3-aza-tricyclo[6.2.1.0^2,7]undec-5-en-5-yl]-1,1-dioxo-1,4-dihydro-1λ^6-benzo[1,2,4]thiadiazin-7-yl}-methanesulfonamide], the IC50 was 20 to 100 nM. As for `CC(C)CCN1C(=O)C(C2=NS(=O)(=O)c3cc(N(C)S(C)(=O)=O)ccc3N2)=C(O)[C@@H]2[C@H]3CC[C@H](C3)[C@@H]21` [Example 24, (1R,2S,7R,8S)-N-{3-[6-Hydroxy-3-(3-methyl-butyl)-4-oxo-3-aza-tricyclo[6.2.1.0^2,7]undec-5-en-5-yl]-1,1-dioxo-1,4-dihydro-1λ^6-benzo[1,2,4]thiadiazin-7-yl}-N-methyl-methanesulfonamide], the concentration for half-maximal inhibition (IC50) is 100 to 1000 nM.

Take `O=C1C(C2=NS(=O)(=O)c3cc(N4CCCS4(=O)=O)ccc3N2)=C(O)[C@@H]2[C@H]3CC[C@H](C3)[C@@H]2N1Cc1ccc(F)cc1` [Example 26, (1R,2S,7R,8S)-5-[7-(1,1-Dioxo-1λ^6-isothiazolidin-2-yl)-1,1-dioxo-1,4-dihydro-1λ^6-benzo[1,2,4]thiadiazin-3-yl]-3-(4-fluoro-benzyl)-6-hydroxy-3-aza-tricyclo[6.2.1.0^2,7]undec-5-en-4-one]: the IC50 is 100 to 1000 nM. With `CS(=O)(=O)Nc1ccc2c(c1)S(=O)(=O)N=C(C1=C(O)[C@@H]3[C@H]4CC[C@H](C4)[C@@H]3NC1=O)N2` [Example 27, (1R,2S,7R,8S)-N-[3-(6-Hydroxy-4-oxo-3-aza-tricyclo[6.2.1.0^2,7]undec-5-en-5-yl)-1,1-dioxo-1,4-dihydro-1λ^6-benzo[1,2,4]thiadiazin-7-yl]-methanesulfonamide] the figure was 1000 to 100000 nM; with `O=C1C(C2=NS(=O)(=O)c3ccccc3N2)=C(O)[C@@H]2[C@H]3CC[C@H](C3)[C@@H]2N1Cc1ccc(F)cc1` [Example 28, (1R,2S,7R,8S)-5-(1,1-Dioxo-1,4-dihydro-1λ^6-benzo[1,2,4]thiadiazin-3-yl)-3-(4-fluoro-benzyl)-6-hydroxy-3-aza-tricyclo[6.2.1.0^2,7]undec-5-en-4-one], 100 to 1000 nM. As for `CS(=O)(=O)Nc1ccc2c(c1)S(=O)(=O)C=C(C1=C(O)[C@@H]3[C@H]4CC[C@H](C4)[C@@H]3N(Cc3ccc(F)cc3)C1=O)N2` [Example 29, N-{3-[(1R,2S,7R,8S)-3-(4-Fluoro-benzyl)-6-hydroxy-4-oxo-3-aza-tricyclo[6.2.1.0^2,7]undec-5-en-5-yl]-1,1-dioxo-1,4-dihydro-1λ^6-benzo[1,4]thiazin-7-yl}-methanesulfonamide], the figure is < 20 nM; as for `Nc1ccc2c(c1)S(=O)(=O)N=C(C1=C(O)[C@@H]3[C@H]4CC[C@H](C4)[C@@H]3N(Cc3ccc(F)cc3)C1=O)N2` [Example 30, (1R,2S,7R,8S)-5-(7-Amino-1,1-dioxo-1,4-dihydro-1λ^6-benzo[1,2,4]thiadiazin-3-yl)-3-(4-fluoro-benzyl)-6-hydroxy-3-aza-tricyclo[6.2.1.0^2,7]undec-5-en-4-one], 100 to 1000 nM. As for `CC(C)CCN1C(=O)C(C2=NS(=O)(=O)c3cc(I)ccc3N2)=C(O)[C@@H]2[C@H]3CC[C@H](C3)[C@@H]21` [Example 34, (1R,2S,7R,8S)-6-Hydroxy-5-(7-iodo-1,1-dioxo-1,4-dihydro-1λ^6-benzo[1,2,4]thiadiazin-3-yl)-3-(3-methyl-butyl)-3-aza-tricyclo[6.2.1.0^2,7]undec-5-en-4-one], the figure is 1000 to 100000 nM; as for `O=C1C(C2=NS(=O)(=O)c3cc(NS(=O)(=O)C4CC4)ccc3N2)=C(O)C2C([C@@H]3CC[C@H]2C3)N1Cc1ccc(F)cc1` (stereo partly drawn) [Example 35, Cyclopropane sulfonic acid{3-[(1R,2S,7R,8S)-3-(4-fluoro-benzyl)-6-hydroxy-4-oxo-3-aza-tricyclo[6.2.1.0^2,7]undec-5-en-5-yl]-1,1-dioxo-1,4-dihydro-1λ^6-benzo[1,2,4]thiadiazin-7-yl}-amide], 20 to 100 nM; as for `CC(C)CCN1C(=O)C(C2=NS(=O)(=O)c3cc(NS(=O)(=O)C4CC4)ccc3N2)=C(O)C2C1[C@@H]1CC[C@H]2C1` (stereo partly drawn) [Example 40, Cyclopropanesulfonic acid{3-(1R,2S,7R,8S)-[6-hydroxy-3-(3-methyl-butyl)-4-oxo-3-aza-tricyclo[6.2.1.0^2,7]undec-5-en-5-yl]-1,1-dioxo-1,4-dihydro-1λ^6-benzo[1,2,4]thiadiazin-7-yl}-amide], 20 to 100 nM.

`O=C1C(C2=NS(=O)(=O)c3cc(NS(=O)(=O)c4ccccc4)ccc3N2)=C(O)[C@@H]2[C@H]3CC[C@H](C3)[C@@H]2N1Cc1ccc(F)cc1` [Example 41, N-{3-[(1R,2S,7R,8S)-3-(4-Fluoro-benzyl)-6-hydroxy-4-oxo-3-aza-tricyclo[6.2.1.0^2,7]undec-5-en-5-yl]-1,1-dioxo-1,4-dihydro-1λ^6-benzo[1,2,4]thiadiazin-7-yl}-benzenesulfonamide]: the IC50 lay in the range of 20 to 100 nM. For `CS(=O)(=O)Nc1ccc2c(c1)S(=O)(=O)N=C(C1=C(O)C3C([C@@H]4CC[C@H]3C4)N(C3CCCC3)C1=O)N2` (stereo partly shown) [Example 44], the IC50 is 100 to 1000 nM.

For the molecule `CC(C)OC(=O)N(c1ccc2c(c1)S(=O)(=O)N=C(C1=C(O)C3C([C@@H]4CC[C@H]3C4)N(C3CCCC3)C1=O)N2)S(C)(=O)=O` (stereo partly drawn) [Example 47, N-[3-(1R,2S,7R,8S)-(3-Cyclopentyl-6-hydroxy-4-oxo-3-aza-tricyclo[6.2.1.0^2,7]undec-5-en-5-yl)-1,1-dioxo-1,4-dihydro-1λ^6-benzo[1,2,4]thiadiazin-7-yl]-methanesulfonamide-N-isopropyl carbamate], the IC50 lay in the range of 1000 to 100000 nM. With `CC(C)CCN1C(=O)C(C2=NS(=O)(=O)c3cc(N4CCCC4)ccc3N2)=C(O)[C@@H]2[C@H]3CC[C@H](C3)[C@@H]21` [Example 53, (1R,2S,7R,8S)-5-(1,1-Dioxo-7-pyrrolidin-1-yl-1,4-dihydro-1λ^6-benzo[1,2,4]thiadiazin-3-yl)-6-hydroxy-3-(3-methyl-butyl)-3-aza-tricyclo[6.2.1.0^2,7]undec-5-en-4-one] the figure was 1000 to 100000 nM; with `O=C1C(C2=NS(=O)(=O)c3cc(NS(=O)(=O)c4cccnc4)ccc3N2)=C(O)C2C([C@@H]3CC[C@H]2C3)N1Cc1ccc(F)cc1` (stereo partly drawn) [Example 54, Pyridine-3-sulfonic acid{3-[(1R,2S,7R,8S)-3-(4-fluoro-benzyl)-6-hydroxy-4-oxo-3-aza-tricyclo[6.2.1.0^2,7]undec-5-en-5-yl]-1,1-dioxo-1,4-dihydro-1λ^6-benzo[1,2,4]thiadiazin-7-yl}-amide], 100 to 1000 nM.
